Reference: US20250154173A1 (Merck Sharp & Dohme LLC, priority 2023, published 2025)

Target: T1, GST-RIPK1 (recombinant GST-RIPK1 kinase domain (residues 1-327)) (Homo sapiens, UniProt Q13546)
T1 construct: recombinant GST-RIPK1 kinase domain (residues 1-327) enzyme produced from baculovirus-transfected Sf21 cells; host or cells: baculovirus-transfected Sf21 insect cells
T1 sequence (Q13546 1-327): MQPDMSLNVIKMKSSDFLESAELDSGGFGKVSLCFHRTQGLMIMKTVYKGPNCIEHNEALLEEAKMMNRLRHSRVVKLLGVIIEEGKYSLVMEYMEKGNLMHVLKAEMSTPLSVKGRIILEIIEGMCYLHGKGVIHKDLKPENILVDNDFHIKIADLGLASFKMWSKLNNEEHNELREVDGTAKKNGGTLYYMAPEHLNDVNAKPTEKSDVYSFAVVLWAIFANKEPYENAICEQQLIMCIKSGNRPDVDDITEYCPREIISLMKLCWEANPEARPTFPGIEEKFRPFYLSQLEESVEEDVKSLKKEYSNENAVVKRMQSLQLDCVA
Assay: RIPK1-ADP-Glo Enzymatic Assay
Format: biochemical
Settings: ten-point titration, top compound concentration of 100000 nM; 25 nM GST-RIPK1, 300 μM ATP, 3 μM dephosphorylated-MBP; 30 min pre-incubation, 150 min reaction
How it was run: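 GST-RIPK1 kinase domain (residues 1-327, Sf21-expressed), 25 nM, preincubated 30 min with compound, then reacted 150 min with 300 μM ATP and 3 μM dephosphorylated MBP in pH 7.3 Hepes buffer, 1% DMSO. ADP measured by ADP-Glo luminescence; EC50 from ten-point titration (top 100000 nM), four-parameter fit.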

Cc1cnn(-c2cnc(COC3CC4(C3)OC3CC[C@@H](c5cnccn5)N3C4=O)cn2)c1 (stereo partly drawn) [Example 18.15, (5′S)-3-{[5-(4-methyl-1H-pyrazol-1-yl)pyrazin-2-yl]methoxy}-5′-(pyrazin-2-yl)tetrahydro-3′H-spiro[cyclobutane-1,2′-pyrrolo[2,1-b][1,3]oxazol]-3′-one]
EC50: 76 nM

O=C1N2C(CC[C@H]2c2cnccn2)OC12CC(OCc1ccc3cnccc3c1)C2 (stereo partly drawn) [Example 18.85, (5′S)-3-[(isoquinolin-6-yl)methoxy]-5′-(pyrazin-2-yl)tetrahydro-3′H-spiro[cyclobutane-1,2′-pyrrolo[2,1-b][1,3]oxazol]-3′-one]
EC50: 79 nM

O=C(O[C@H]1C[C@@]2(C1)O[C@@H]1CC[C@@H](c3cc(F)cc(F)c3)N1C2=O)c1ccccn1 [Example 13, (1r,3R,5′S,7a′R)-5′-(3,5-difluorophenyl)-3′-oxotetrahydro-3′H-spiro[cyclobutane-1,2′-pyrrolo[2,1-b]oxazol]-3-yl picolinate]
EC50: 165 nM

N#Cc1cccc(F)c1COC1CC2(C1)OC1CC[C@@H](c3cnccn3)N1C2=O (stereo partly drawn) [Example 18.100, 3-fluoro-2-({[(5′S)-3′-oxo-5′-(pyrazin-2-yl)tetrahydro-3′H-spiro[cyclobutane-1,2′-pyrrolo[2,1-b][1,3]oxazol]-3-yl]oxy}methyl)benzonitrile]
EC50: 472 nM

N#CC1(c2ccc(COC3CC4(C3)OC3CC[C@@H](c5cnccn5)N3C4=O)c(Cl)c2)CC1 (stereo partly drawn) [Example 18.79, 1-[3-chloro-4-({[(5′S)-3′-oxo-5′-(pyrazin-2-yl)tetrahydro-3′H-spiro[cyclobutane-1,2′-pyrrolo[2,1-b][1,3]oxazol]-3-yl]oxy}methyl)phenyl]cyclopropane-1-carbonitrile]
EC50: 20 nM

Cc1cc2c(O[C@H]3C[C@@]4(C3)O[C@@H]3CC[C@@H](c5cc(F)cc(F)c5)N3C4=O)ncnc2o1 [Example 9.32, (1r,3R,5′S,7a′R)-5′-(3,5-difluorophenyl)-3-[(6-methylfuro[2,3-d]pyrimidin-4-yl)oxy]tetrahydro-3′H-spiro[cyclobutane-1,2′-pyrrolo[2,1-b][1,3]oxazol]-3′-one]
EC50: 8 nM

O=C1N2C(CC[C@H]2c2cnccn2)OC12CC(OCc1ccc3c(c1)CCO3)C2 (stereo partly drawn) [Example 18.108, (5′S)-3-((2,3-dihydrobenzofuran-5-yl)methoxy)-5′-(pyrazin-2-yl)tetrahydro-3′H-spiro[cyclobutane-1,2′-pyrrolo[2,1-b]oxazol]-3′-one]
EC50: 94 nM

Cn1ccc([C@@H]2CC[C@H]3OC4(CC(Oc5cncc(Cl)c5)C4)C(=O)N32)n1 (stereo partly drawn) [Example 19.9, (5′S,7a′R)-3-[(5-chloropyridin-3-yl)oxy]-5′-(1-methyl-1H-pyrazol-3-yl)tetrahydro-3′H-spiro[cyclobutane-1,2′-pyrrolo[2,1-b][1,3]oxazol]-3′-one]
EC50: 397 nM

Cn1ccc([C@@H]2CC[C@H]3OC4(CC(Oc5cnccn5)C4)C(=O)N32)n1 (stereo partly drawn) [Example 9.64, (5′S,7a′R)-5′-(1-methyl-1H-pyrazol-3-yl)-3-[(pyrazin-2-yl)oxy]tetrahydro-3′H-spiro[cyclobutane-1,2′-pyrrolo[2,1-b][1,3]oxazol]-3′-one]
EC50: 124 nM

N#Cc1ccnc(O[C@H]2C[C@@]3(C2)O[C@@H]2CC[C@@H](c4cc(F)cc(F)c4)N2C3=O)c1 [Example 10.1, 2-(((1r,3R,5′S,7a′R)-5′-(3,5-difluorophenyl)-3′-oxotetrahydro-3′H-spiro[cyclobutane-1,2′-pyrrolo[2,1-b]oxazol]-3-yl)oxy)isonicotinonitrile]
EC50: 9 nM

N#Cc1ccc(OC2CCC2)cc1COC1CC2(C1)OC1CC[C@@H](c3cnccn3)N1C2=O (stereo partly drawn) [Example 18.88, 4-(cyclobutyloxy)-2-({[(5′S)-3′-oxo-5′-(pyrazin-2-yl)tetrahydro-3′H-spiro[cyclobutane-1,2′-pyrrolo[2,1-b][1,3]oxazol]-3-yl]oxy}methyl)benzonitrile]
EC50: 169 nM

Cc1cn(-c2cc(OC3CC4(C3)O[C@@H]3CC[C@@H](c5cc(F)cc(F)c5)N3C4=O)ncn2)cn1 (stereo partly drawn) [Example 9.11, (5′S,7a′R)-5′-(3,5-difluorophenyl)-3-{[6-(4-methyl-1H-imidazol-1-yl)pyrimidin-4-yl]oxy}tetrahydro-3′H-spiro[cyclobutane-1,2′-pyrrolo[2,1-b][1,3]oxazol]-3′-one]
EC50: 21 nM

N#Cc1cncc(O[C@H]2C[C@@]3(C2)O[C@@H]2CC[C@@H](c4ccc(F)cc4)N2C3=O)c1 [Example 9.49, 5-{[(1r,3R,5′S,7a′R)-5′-(4-fluorophenyl)-3′-oxotetrahydro-3′H-spiro[cyclobutane-1,2′-pyrrolo[2,1-b][1,3]oxazol]-3-yl]oxy}pyridine-3-carbonitrile]
EC50: 15 nM

N#CCc1ncc(COC2CC3(C2)OC2CC[C@@H](c4cnccn4)N2C3=O)cc1Cl (stereo partly drawn) [Example 18.98, [3-chloro-5-({[(5′S)-3′-oxo-5′-(pyrazin-2-yl)tetrahydro-3′H-spiro[cyclobutane-1,2′-pyrrolo[2,1-b][1,3]oxazol]-3-yl]oxy}methyl)pyridin-2-yl]acetonitrile]
EC50: 198 nM

O=C1N2C(CC[C@H]2c2cnccn2)OC12CC(OCc1ccc(C(F)F)cn1)C2 (stereo partly drawn) [Example 18.63, (5′S)-3-{[5-(difluoromethyl)pyridin-2-yl]methoxy}-5′-(pyrazin-2-yl)tetrahydro-3′H-spiro[cyclobutane-1,2′-pyrrolo[2,1-b][1,3]oxazol]-3′-one]
EC50: 354 nM

O=C1N2[C@@H](CC[C@H]2c2cc(F)cc(F)c2)O[C@]12C[C@H](Oc1ncnn3cccc13)C2 [Example 9.22, (1r,3R,5′S,7a′R)-5′-(3,5-difluorophenyl)-3-[(pyrrolo[2,1-f][1,2,4]triazin-4-yl)oxy]tetrahydro-3′H-spiro[cyclobutane-1,2′-pyrrolo[2,1-b][1,3]oxazol]-3′-one]
EC50: 11 nM

Cn1ccc([C@@H]2CC[C@H]3OC4(CC(Oc5cccnc5)C4)C(=O)N32)n1 (stereo partly drawn) [Example 19.8, (5′S,7a′R)-5′-(1-methyl-1H-pyrazol-3-yl)-3-[(pyridin-3-yl)oxy]tetrahydro-3′H-spiro[cyclobutane-1,2′-pyrrolo[2,1-b][1,3]oxazol]-3′-one]
EC50: 474 nM

O=C1N2[C@@H](CC[C@H]2c2ccccc2)OC12CC(Oc1ccnn3cccc13)C2 (stereo partly drawn) [Example 8.21, (5′S,7a′R)-5′-phenyl-3-[(pyrrolo[1,2-b]pyridazin-4-yl)oxy]tetrahydro-3′H-spiro[cyclobutane-1,2′-pyrrolo[2,1-b][1,3]oxazol]-3′-one]
EC50: 39 nM

N#Cc1ccnc(O[C@H]2C[C@@]3(C2)O[C@@H]2CC[C@@H](c4ccccc4)N2C3=O)n1 [Example 9.19, 2-{[(1r,3R,5′S,7a′R)-3′-oxo-5′-phenyltetrahydro-3′H-spiro[cyclobutane-1,2′-pyrrolo[2,1-b][1,3]oxazol]-3-yl]oxy}pyrimidine-4-carbonitrile]
EC50: 64 nM

O=C1N2[C@@H](CC[C@H]2c2cc(F)cc(F)c2)O[C@]12C[C@H](Oc1cc(-n3cccn3)ncn1)C2 [Example 9.6, (5′S,7a′R)-5′-(3,5-difluorophenyl)-3-{[6-(1H-pyrazol-1-yl)pyrimidin-4-yl]oxy}tetrahydro-3′H-spiro[cyclobutane-1,2′-pyrrolo[2,1-b][1,3]oxazol]-3′-one]
EC50: 12 nM

COc1ccc(COC2CC3(C2)OC2CC[C@@H](c4cnccn4)N2C3=O)cc1CC#N (stereo partly drawn) [Example 18.86, [2-methoxy-5-({[(5′S)-3′-oxo-5′-(pyrazin-2-yl)tetrahydro-3′H-spiro[cyclobutane-1,2′-pyrrolo[2,1-b][1,3]oxazol]-3-yl]oxy}methyl)phenyl]acetonitrile]
EC50: 94 nM

N#Cc1ccnc(O[C@H]2C[C@@]3(C2)O[C@@H]2CC[C@@H](c4ccccc4)N2C3=O)c1 [Example 10.4, 2-(((1r,3R,5′S,7a′R)-3′-oxo-5′-phenyltetrahydro-3′H-spiro[cyclobutane-1,2′-pyrrolo[2,1-b]oxazol]-3-yl)oxy)isonicotinonitrile]
EC50: 13 nM

O=C1N2[C@@H](CC[C@H]2c2ccccc2)OC12CC(Oc1cccc3cnoc13)C2 (stereo partly drawn) [Example 8.19]
EC50: 254 nM

O=C1N2[C@@H](CC[C@H]2c2cc(F)cc(F)c2)O[C@]12C[C@H](Oc1nccc3ncnn13)C2 [Example 9.23, (1r,3R,5′S,7a′R)-5′-(3,5-difluorophenyl)-3-[([1,2,4]triazolo[1,5-c]pyrimidin-5-yl)oxy]tetrahydro-3′H-spiro[cyclobutane-1,2′-pyrrolo[2,1-b][1,3]oxazol]-3′-one]
EC50: 55 nM

O=C1N2C(CC[C@H]2c2cnccn2)OC12CC(OCc1cc3cncnc3s1)C2 (stereo partly drawn) [Example 18.107, (5′S)-5′-(pyrazin-2-yl)-3-(thieno[2,3-d]pyrimidin-6-ylmethoxy)tetrahydro-3′H-spiro[cyclobutane-1,2′-pyrrolo[2,1-b]oxazol]-3′-one]
EC50: 34 nM

Cn1nccc1-c1cccc(OC2CC3(C2)O[C@@H]2CC[C@@H](c4cnccn4)N2C3=O)c1 (stereo partly drawn) [Example 19.13, (5′S,7a′R)-3-[3-(1-methyl-1H-pyrazol-5-yl)phenoxy]-5′-(pyrazin-2-yl)tetrahydro-3′H-spiro[cyclobutane-1,2′-pyrrolo[2,1-b][1,3]oxazol]-3′-one]
EC50: 15 nM

4-{[(1r,3R,5′S,7a′R)-3′-oxo-5′- phenyltetrahydro-3′H- spiro[cyclobutane-1,2′-pyrrolo[2,1- b][1,3]oxazol]-3-yl]oxy}pyrimidine- 2-carbonitrile [Example 9.18]
EC50: 54 nM
